Experimental data taken from patent publication US20120172397A1, “HEXAHYDROCYCLOPENTA[f]INDAZOLE 5-YL ETHANOLS AND DERIVATIVES THEREOF AS SELECTIVE GLUCOCORTICOID RECEPTOR MODULATORS” (MERCK SHARP & DOHME CORP., priority 2009, published 2012).

Target: T1, glucocorticoid receptor (GR) (Homo sapiens, UniProt P04150)
T1 construct: Preparation of HeLa Cell Lysate; endogenous in cells; host or cells: HeLa (ATCC) cell lysate supernatant
T1 sequence (P04150 1-777): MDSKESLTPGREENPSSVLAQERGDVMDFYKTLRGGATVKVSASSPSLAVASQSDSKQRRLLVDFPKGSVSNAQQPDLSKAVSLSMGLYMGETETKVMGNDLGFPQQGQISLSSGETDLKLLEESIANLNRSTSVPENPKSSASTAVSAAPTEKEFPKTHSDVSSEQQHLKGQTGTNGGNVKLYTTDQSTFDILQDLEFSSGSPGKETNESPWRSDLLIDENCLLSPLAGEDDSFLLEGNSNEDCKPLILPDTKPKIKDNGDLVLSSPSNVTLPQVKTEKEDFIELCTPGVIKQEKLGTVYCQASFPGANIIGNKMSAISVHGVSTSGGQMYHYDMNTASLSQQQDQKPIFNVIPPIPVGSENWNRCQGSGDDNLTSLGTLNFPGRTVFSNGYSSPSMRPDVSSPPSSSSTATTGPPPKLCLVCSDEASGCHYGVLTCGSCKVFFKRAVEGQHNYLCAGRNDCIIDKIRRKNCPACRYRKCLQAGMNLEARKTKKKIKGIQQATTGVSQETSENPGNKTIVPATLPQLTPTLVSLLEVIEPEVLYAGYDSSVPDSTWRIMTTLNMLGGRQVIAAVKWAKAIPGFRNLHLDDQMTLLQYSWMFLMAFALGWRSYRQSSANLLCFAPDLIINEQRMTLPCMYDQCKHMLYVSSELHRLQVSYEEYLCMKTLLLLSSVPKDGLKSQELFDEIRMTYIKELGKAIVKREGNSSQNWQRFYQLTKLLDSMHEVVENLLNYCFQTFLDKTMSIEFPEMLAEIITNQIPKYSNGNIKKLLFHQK
Experiment: GR Ligand Binding Assay (BIND), 3H-dexamethasone displacement in HeLa cell lysate
Conditions: 3H-DEX trace, 4° C. overnight
Protocol: Binding Buffer: TEGM (10 mM Tris-HCl, 1 mM EDTA, 10% glycerol, 1 rnM beta-mecaptoethanol, 10 mM Sodium Molybdate, pH 7.2)
50% HAP Slurry: Calbiochem Hydroxylapatite, Fast Flow, in 10 mM Iris, pH 8.0 and 1 mM EDTA.
Wash Buffer: 40 mM Tris, pH7.5, 100 mM KCl, 1 mM EDTA and 1 mM EGTA. 95% EtOH
Dexmethasone-methyl-^3H, (DEX*); (Amersham cat# TRK645)
Dexamethasone(DEX) (Sigma, cat# D1756):
Cells (Hall R. E., et al., European Journal of Cancer, 30A: 484-490 (1994)) HeLa (ATCC) cultured in RPMI 1640 (Gibco 11835-055) containing 20 mM Hepes, 4 mM L-glu, 10 μg/ml of human insulin (Sigma, I-0259), 10% FBS and 20 μg/ml of Gentamicin (Gibco#15710-072) are rinsed twice in PBS. Phenol red-free Trypsin-EDTA is diluted in the same PBS 1:10. The cell layers are rinsed with 1× Trypsin, extra Trypsin is poured out, and the cell layers are incubated at 37° C. for ˜2 min. The flask is tapped and checked for signs of cell detachment. Once the cells begin to slide off the flask, the complete media is added. The cells are counted at this point, then diluted to the appropriate concentration and split into flasks or dishes for further culturing (Usually 1:3 to 1:6 dilution).
When the cells are 70 to 85% confluent, they are detached as described above, and collected by centrifuging at 1000 g for 10 minutes at 4° C. The cell pellet is washed twice with TEGM (10 mM Tris-HCl, 1 mM EDTA, 10% glycerol, 1 mM beta-mercaptoethanol, 10 mM Sodium Molybdate, pH 7.2). After the final wash, the cells are resuspended in TEGM at a concentration of 10^7 cells/mL. The cell suspension is snap frozen in liquid nitrogen or ethanol/dry ice bath and transferred to −80° C. freezer on dry ice. Before setting up the binding assay, the frozen samples are left on ice-water to just thaw (˜1 hr). Then the samples are centrifuged at 12,500 g to 20,000 g for 30 min at 4° C. The supernatant is used to set-up assay right away. If using 50 μL of supernatant, the test compound can be prepared in 50 μL of the TEGM buffer.
1× TEGM buffer is prepared, and the isotope-containing assay mixture is prepared in the following order: EtOH (2% final concentration in reaction), ^3H-DEX (Amersham Biosciences) and 1× TEGM. [e.g. For 100 samples, 200 μL (100×2) of EtOH+4.25 μL of 1:10 ^3H-Dex stock+2300 μL (100×23) 1× TEGM]. The compound is serially diluted, e.g., if starting final conc. is 1 μM, and the compound is in 25 μL of solution, for duplicate samples, 75 μL of 4×1 μM solution is made and 3 μL of 100 μM is added to 72 μL of buffer, and 1:5 serial dilution.
25 μL of ^3H-DEX (6 nM) trace and 25 μL compound solution are first mixed together, followed by addition of 50 μL receptor solution. The reaction is gently mixed, spun briefly at about 200 rpm and incubated at 4° C. overnight. 100 μL of 50% HAP slurry is prepared and added to the incubated reaction which is then vortexed and incubated on ice for 5 to 10 minutes. The reaction mixture is vortexed twice more to resuspend HAP while incubating reaction. The samples in 96-well format are then washed in wash buffer using The FilterMate™ Universal Harvester plate washer (Packard). The washing process transfers HAP pellet containing ligand-bound expressed receptor to Unifilter-96 GF/B filter plate (Packard). The HAP pellet on the filter plate is incubated with 50 μL of MICROSCINT (Packard) scintillint for 30 minutes before being counted on the TopCount microscintillation counter (Packard). IC50s are calculated using DEX as a reference.

**Q.** How did the Ki turn out when `C[C@]12Cc3cnn(-c4cccnc4)c3C=C1CC[C@@H]2CC(O)c1ccccc1` (single isomer, unassigned) [Example 1a] was run?
**A.** 3.5 nM

**Q.** Which Ki does the source give for `C[C@]12Cc3cnn(-c4cccnc4)c3C=C1CC[C@@H]2CC(O)c1ccccc1` (single isomer, unassigned) [Example 1b] here?
**A.** 8.8 nM

**Q.** With `COc1ccccc1C(O)C[C@H]1CCC2=Cc3c(cnn3-c3cccnc3)C[C@@]21C` (single isomer, unassigned) [Example 2a] as the compound, how does the Ki read?
**A.** 7.3 nM

**Q.** How did the Ki turn out when `COc1ccccc1C(O)C[C@H]1CCC2=Cc3c(cnn3-c3cccnc3)C[C@@]21C` (single isomer, unassigned) [Example 2b] was run?
**A.** 9 nM

**Q.** `COc1cccc(C(O)C[C@H]2CCC3=Cc4c(cnn4-c4cccnc4)C[C@@]32C)c1` (single isomer, unassigned) [Example 4a] was tested. Which Ki did it give?
**A.** 3.6 nM

**Q.** For `COc1cccc(C(O)C[C@H]2CCC3=Cc4c(cnn4-c4cccnc4)C[C@@]32C)c1` (single isomer, unassigned) [Example 4b], which Ki is on record?
**A.** 8.4 nM

**Q.** `C[C@]12Cc3cnn(-c4cccnc4)c3C=C1CC[C@@H]2CC(O)c1ccccn1` (single isomer, unassigned) [Example 6a] was tested. Which Ki did it give?
**A.** 346 nM

**Q.** How did the Ki turn out when `C[C@]12Cc3cnn(-c4cccnc4)c3C=C1CC[C@@H]2CC(O)c1ccccn1` (single isomer, unassigned) [Example 6b] was run?
**A.** 151 nM

**Q.** For `CC(O)(C[C@H]1CCC2=Cc3c(cnn3-c3cccnc3)C[C@@]21C)c1ccccc1` (single isomer, unassigned) [Example 7a], which Ki is on record?
**A.** 2.3 nM

**Q.** For `CC(O)(C[C@H]1CCC2=Cc3c(cnn3-c3cccnc3)C[C@@]21C)c1ccccc1` (single isomer, unassigned) [Example 7b], which Ki is on record?
**A.** 4.8 nM

**Q.** Which Ki does the source give for `COc1ccc(C(O)C[C@H]2CCC3=Cc4c(cnn4-c4cccnc4)C[C@@]32C)cn1` (stereo partly drawn) [Example 3, 1-(6-methoxypyridin-3-yl)-2-[(4αR,5R)-4α-methyl-1-(pyridin-3-yl)-1,4,4α,5,6,7-hexahydrocyclopenta[f]indazol-5-yl] ethanol] here?
**A.** 8.5 nM

**Q.** `COc1ccc(C(O)C[C@H]2CCC3=Cc4c(cnn4-c4cccnc4)C[C@@]32C)cc1` (stereo partly drawn) [Example 5, 1-(4-methoxyphenyl)-2-[(4αR,5R)-4α-methyl-1-(pyridin-3-yl)-1,4,4α,5,6,7-hexahydrocyclopenta[f]indazol-5-yl] ethanol] was tested. Which Ki did it give?
**A.** 0.9 nM
